Test results reported in patent publication US20260022096A1, “NOVEL SULFONAMIDES AND THEIR USE AS NEUROPROTECTIVE AND/OR NEURORESTORATIVE AGENTS” (GENECODE, priority 2022, published 2026).
pEC50: −log10 of the molar value.

Biological target: T1, GFRα1-RET (Homo sapiens, UniProt P56159)
T1 construct: expressed in transfected cells; host or cells: MG87 murine fibroblasts, stably transfected
T1 sequence (P56159 25-429 limits assumed): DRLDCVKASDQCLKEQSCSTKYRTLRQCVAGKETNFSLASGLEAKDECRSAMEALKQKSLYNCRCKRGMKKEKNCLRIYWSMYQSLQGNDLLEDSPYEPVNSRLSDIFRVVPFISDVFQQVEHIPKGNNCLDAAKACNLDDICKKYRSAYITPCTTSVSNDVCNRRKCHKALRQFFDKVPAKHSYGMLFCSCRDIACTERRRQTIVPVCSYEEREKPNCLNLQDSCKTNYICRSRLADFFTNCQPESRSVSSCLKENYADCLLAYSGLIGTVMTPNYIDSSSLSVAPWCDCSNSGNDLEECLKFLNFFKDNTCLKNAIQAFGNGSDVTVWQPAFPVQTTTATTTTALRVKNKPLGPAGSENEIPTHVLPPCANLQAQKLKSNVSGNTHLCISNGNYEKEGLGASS
Test: Elk1 reporter-gene (luciferase) assay in cells expressing GFRα1-RET
Format: cell-based
Conditions: MG87 murine fibroblasts stably transfected with PathDetect Elk-1, GFRα1 and RET, 6 concentrations, agonist/activator activity
Description: For ECso determination, a dose-response test was performed using 6 concentrations of each tested compound. Dose-response curves were fitted using the sigmoidal dose-response (variable slope) analysis in GraphPad Prism program (Graph Pad Inc) and ECso of agonist/activator activity was calculated. Dose-response experiments were all performed in duplicate, two times independently.

| SMILES | pEC50 |
| --- | --- |
| COc1ccc(S(=O)(=O)NC(C)(C)C)cc1N1[C@@H]2CC[C@H]1CN(C(=O)c1ccc(F)cc1Cl)C2 [compound 002] | 5.00 to 6.00 |
| CCN(CC)S(=O)(=O)c1cnc(OC)c(N2[C@@H]3CC[C@H]2CN(C(=O)c2ccc(F)cc2Cl)C3)c1 [compound 033, 5-[(1S,5R)-3-(2-chloro-4-fluoro-benzoyl)-3,8-diazabicyclo[3.2.1]octan-8-yl]-N,N-diethyl-6-methoxy-pyridine-3-sulfonamide] | 5.00 to 6.00 |
| COc1ccc(S(=O)(=O)N2CCN(CC(C)c3ccccc3)CC2)cc1N1C2CCC1CN(C(=O)c1ccc(F)cc1Cl)C2 (racemic) [compound 047, (2-chloro-4-fluoro-phenyl)-[(1S,5R)-8-[2-methoxy-5-[4-[(2RS)-2-phenylpropyl]piperazin-1-yl]sulfonyl-phenyl]-3,8-diazabicyclo[3.2.1]octan-3-yl]methanone] | > 6.00 |
| Cn1cnc(-c2ccc(S(=O)(=O)N3CCC(c4ccccc4)CC3)cc2N2[C@@H]3CC[C@H]2CN(C(=O)c2ccc(F)cc2Cl)C3)c1 [compound 082, (2-chloro-4-fluoro-phenyl)-[(1S,5R)-8-[2-(1-methylimidazol-4-yl)-5-[(4-phenyl-1-piperidyl)sulfonyl]phenyl]-3,8-diazabicyclo[3.2.1]octan-3-yl]methanone] | 5.00 to 6.00 |
| COc1ccc(S(=O)(=O)N2CCC(c3ccccc3)CC2)cc1N1[C@@H]2CC[C@H]1CN(C(=O)c1ccc(F)cc1Cl)C2 [compound 009, (2-chloro-4-fluoro-phenyl)-[(1S,5R)-8-[2-methoxy-5-[(4-phenyl-1-piperidyl)sulfonyl]phenyl]-3,8-diazabicyclo[3.2.1]octan-3-yl]methanone] | 5.00 to 6.00 |
| CC(NS(=O)(=O)c1cc(Cl)c(O)c(N2C3CCC2CN(C(=O)c2ccc(F)cc2Cl)C3)c1)C(F)(F)F (racemic) [compound 104, 3-chloro-5-[(1S,5R)-3-(2-chloro-4-fluoro-benzoyl)-3,8-diazabicyclo[3.2.1]octan-8-yl]-4-hydroxy-N-[(1SR)-2,2,2-trifluoro-1-methyl-ethyl]benzenesulfonamide] | 5.00 to 6.00 |
| O=C(c1ccc(F)cc1Cl)N1C[C@H]2CC[C@@H](C1)N2c1cc(S(=O)(=O)N2CCC(c3ccc(F)cc3)CC2)cc(F)c1O [compound 084, (2-chloro-4-fluoro-phenyl)-[(1S,5R)-8-[3-fluoro-5-[[4-(4-fluorophenyl)-1-piperidyl]sulfonyl]-2-hydroxy-phenyl]-3,8-diazabicyclo[3.2.1]octan-3-yl]methanone] | > 6.00 |
| O=C(O)c1ccc(S(=O)(=O)N2CCC(c3ccccc3)CC2)cc1N1[C@@H]2CC[C@H]1CN(C(=O)c1ccc(F)cc1Cl)C2 [compound 071, 2-[(1S,5R)-3-(2-chloro-4-fluoro-benzoyl)-3,8-diazabicyclo[3.2.1]octan-8-yl]-4-[(4-phenyl-1-piperidyl)sulfonyl]benzoic acid] | > 6.00 |
| COc1ccc(S(=O)(=O)N2CCN(CCc3ccc(Cl)cc3)CC2)cc1N1[C@@H]2CC[C@H]1CN(C(=O)c1ccc(F)cc1Cl)C2 [compound 048, (2-chloro-4-fluoro-phenyl)-[(1S,5R)-8-[5-[4-[2-(4-chlorophenyl)ethyl]piperazin-1-yl]sulfonyl-2-methoxy-phenyl]-3,8-diazabicyclo[3.2.1]octan-3-yl]methanone] | > 6.00 |
| O=C(c1ccc(F)cc1Cl)N1C[C@H]2CC[C@@H](C1)N2c1cc(S(=O)(=O)N2CCC(c3ccccc3)CC2)ccc1C1CC1 [compound 080, (2-chloro-4-fluoro-phenyl)-[(1S,5R)-8-[2-cyclopropyl-5-[(4-phenyl-1-piperidyl)sulfonyl]phenyl]-3,8-diazabicyclo[3.2.1]octan-3-yl]methanone] | > 6.00 |
| CN(C(C)(C)C)S(=O)(=O)c1cc(Cl)c(OCc2ccccc2)c(N2[C@@H]3CC[C@H]2CN(C(=O)c2ccc(F)cc2Cl)C3)c1 [compound 136, 4-benzyloxy-N-tert-butyl-3-chloro-5-[(1S,5R)-3-(2-chloro-4-fluoro-benzoyl)-3,8-diazabicyclo[3.2.1]octan-8-yl]-N-methyl-benzenesulfonamide] | > 6.00 |
| CCCN(C)S(=O)(=O)c1ccc(OC)c(N2[C@@H]3CC[C@H]2CN(C(=O)c2ccc(F)cc2Cl)C3)c1 [compound 003] | 5.00 to 6.00 |
| CC1(NS(=O)(=O)c2cc(Cl)c(O)c(N3[C@@H]4CC[C@H]3CN(C(=O)c3ccc(F)cc3Cl)C4)c2)CC1 [compound 101, 3-chloro-5-[(1S,5R)-3-(2-chloro-4-fluoro-benzoyl)-3,8-diazabicyclo[3.2.1]octan-8-yl]-4-hydroxy-N-(1-methylcyclopropyl) benzenesulfonamide] | 5.00 to 6.00 |
| O=C(c1ccc(F)cc1Cl)N1C[C@H]2CC[C@@H](C1)N2c1cc(S(=O)(=O)N2CCC(c3ccccc3)CC2)ccc1Cl [compound 066, (2-chloro-4-fluoro-phenyl)-[(1S,5R)-8-[2-chloro-5-[(4-phenyl-1-piperidyl)sulfonyl]phenyl]-3,8-diazabicyclo[3.2.1]octan-3-yl]methanone] | > 6.00 |
| CN(C1(C)COC1)S(=O)(=O)c1cc(Cl)c(O)c(N2[C@@H]3CC[C@H]2CN(C(=O)c2ccc(F)cc2Cl)C3)c1 [compound 106, 3-chloro-5-[(1S,5R)-3-(2-chloro-4-fluoro-benzoyl)-3,8-diazabicyclo[3.2.1]octan-8-yl]-4-hydroxy-N-methyl-N-(3-methyloxetan-3-yl)benzenesulfonamide] | > 6.00 |
| CCCN(C)S(=O)(=O)c1ccc(OCC)c(N2[C@@H]3CC[C@H]2CN(C(=O)c2ccc(F)cc2Cl)C3)c1 [compound 029] | 5.00 to 6.00 |
| CN(C1COC1)S(=O)(=O)c1cc(Cl)c(O)c(N2[C@@H]3CC[C@H]2CN(C(=O)c2ccc(F)cc2Cl)C3)c1 [compound 109, 3-chloro-5-[(1S,5R)-3-(2-chloro-4-fluoro-benzoyl)-3,8-diazabicyclo[3.2.1]octan-8-yl]-4-hydroxy-N-methyl-N-(oxetan-3-yl)benzenesulfonamide] | 5.00 to 6.00 |
| CCCN(C)S(=O)(=O)c1ccc(C2CC2)c(N2[C@@H]3CC[C@H]2CN(C(=O)c2ccc(F)cc2Cl)C3)c1 [compound 079] | > 6.00 |
| COc1ccc(S(=O)(=O)N2CCC(Cc3ccccc3)CC2)cc1N1C2CCC1CN(C(=O)c1ccc(F)cc1Cl)C2 (racemic) [compound 025, (2-chloro-4-fluoro-phenyl)-[rac-(1S,5S)-8-[5-[(4-benzyl-1-piperidyl)sulfonyl]-2-methoxy-phenyl]-3,8-diazabicyclo[3.2.1]]octan-3-yl]methanone] | 5.00 to 6.00 |
| CCCN(C)S(=O)(=O)c1ccc(OC2CCC2)c(N2[C@@H]3CC[C@H]2CN(C(=O)c2ccc(F)cc2Cl)C3)c1 [compound 030, 3-[(1S,5R)-3-(2-chloro-4-fluoro-benzoyl)-3,8-diazabicyclo[3.2.1]octan-8-yl]-4-(cyclobutoxy)-N-methyl-N-propyl-benzenesulfonamide] | 5.00 to 6.00 |
| COc1ccc(S(=O)(=O)N2CCC(Cc3ccccc3)CC2)cc1N1CCN(C(=O)c2ccc(F)cc2Cl)CC1C (racemic) [compound 019, (2-chloro-4-fluoro-phenyl)-[rac-(3S)-4-[5-[(4-benzyl-1-piperidyl)sulfonyl]-2-methoxy-phenyl]-3-methyl-piperazin-1-yl]methanone] | > 6.00 |
